Consider 13 compounds from PubChem BioAssay (NCI).

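The compound was tested at five concentrations on cells cultured in 96-well plates, with a 48-hour exposure period. TGI denotes the concentration required for complete inhibition of growth.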 Bounds are passed on as bounds.

Some test systems named below: COLO 205 colon; IGROV1 ovarian; HL-60(TB) leukemia; UACC-257 melanoma; SR leukemia; UO-31 renal; HOP-62 NSCLC; NCI-H226 lung; A549 NSCLC; HCC-2998 colon; HS 578T breast; SNB-19 CNS; BT-549 breast; HCT-15 colon; MCF7 breast; SW-620 colon; SN12C renal; HT29 colon.
Holding throughout (test): DTP human tumour cell line panel, 48 h

On to `COc1ccc(/C=C/C(=N/NC(=O)N/N=C(/C=C/c2ccc(OC)cc2)C(C)(C)CN2CCCCC2)C(C)(C)CN2CCCCC2)cc1`, for which the TGI came out at 3.1 µM in the assay with COLO 205 colon; 5.77 µM in the assay on IGROV1 ovarian; 3.22 µM with HL-60(TB) leukemia; 3.31 µM in the assay on UACC-257 melanoma; 0.679 µM with SR leukemia; 2.95 µM in the assay on UO-31 renal. Further, the TGI with HOP-62 NSCLC is 3.93 µM; in the assay on NCI-H226 lung, 3.02 µM; with A549 NSCLC it was 3.49 µM; with HCC-2998 colon, 3.42 µM; with HS 578T breast it was 4.28 µM; in the assay on SNB-19 CNS it was 6.4 µM. For the same compound, the TGI in the assay on BT-549 breast amounted to 3.58 µM; in the assay with HCT-15 colon, 7.06 µM; with MCF7 breast, 6.26 µM; in the assay with SW-620 colon, 4.48 µM; in the assay with SN12C renal it was 5.83 µM; in the assay on HT29 colon it was 3.11 µM.
Consider `O=C(NNCC(F)(F)F)c1ccncc1`, for which the TGI in the assay on COLO 205 colon, in the assay on IGROV1 ovarian, in the assay with HL-60(TB) leukemia, with UACC-257 melanoma, in the assay on SR leukemia and with UO-31 renal was more than 100 µM in each case. Moreover, the TGI with HOP-62 NSCLC, in the assay on NCI-H226 lung, with A549 NSCLC, in the assay with HCC-2998 colon, with HS 578T breast and in the assay on SNB-19 CNS was more than 100 µM each time. In addition, the TGI in the assay on BT-549 breast, with HCT-15 colon, in the assay on MCF7 breast, in the assay on SW-620 colon, in the assay on SN12C renal and with HT29 colon was more than 100 µM each time.
As to `CCCCCCCNC(P(=O)(O)O)P(=O)(O)O`, the TGI in the assay on COLO 205 colon, in the assay on IGROV1 ovarian, with HL-60(TB) leukemia, in the assay with UACC-257 melanoma, in the assay on SR leukemia and with UO-31 renal was more than 100 µM in each case. Also, the TGI was more than 100 µM in the assay on HOP-62 NSCLC; more than 100 µM with NCI-H226 lung; more than 100 µM in the assay on A549 NSCLC; more than 100 µM with HCC-2998 colon; 97.5 µM in the assay on HS 578T breast; more than 100 µM in the assay with SNB-19 CNS. The TGI in the assay with BT-549 breast, in the assay with HCT-15 colon, in the assay with MCF7 breast, in the assay on SW-620 colon, with SN12C renal and in the assay with HT29 colon was more than 100 µM in each case.
For the compound `CCOC(=O)NC(C(=O)OCC)(N1CCN(c2cc3c(cc2F)c(=O)c(C(=O)O)cn3CC)CC1)C(F)(F)F` (centres undefined), the TGI in the assay on COLO 205 colon, in the assay on IGROV1 ovarian, with HL-60(TB) leukemia, in the assay on UACC-257 melanoma, in the assay on SR leukemia and with UO-31 renal was more than 100 µM in each case. Also, the TGI in the assay with HOP-62 NSCLC, in the assay with NCI-H226 lung, in the assay on A549 NSCLC, in the assay with HCC-2998 colon, with HS 578T breast and with SNB-19 CNS was more than 100 µM each time. In addition, the TGI in the assay with BT-549 breast, in the assay on HCT-15 colon, in the assay with MCF7 breast, with SW-620 colon, with SN12C renal and in the assay with HT29 colon was more than 100 µM each time.
As to `CCOC(=O)C1=c2[nH]c3cccc4cccc(c43)n2C(=O)CC1c1ccccc1` (centres undefined), the TGI in the assay on COLO 205 colon, in the assay on IGROV1 ovarian, with HL-60(TB) leukemia, with UACC-257 melanoma, in the assay on SR leukemia and in the assay with UO-31 renal was more than 100 µM in each case. In addition, the TGI in the assay with HOP-62 NSCLC, in the assay on NCI-H226 lung, with A549 NSCLC, in the assay with HCC-2998 colon, with HS 578T breast and in the assay with SNB-19 CNS was more than 100 µM throughout. The concentration for total growth inhibition (TGI) in the assay on BT-549 breast, in the assay on HCT-15 colon, in the assay on MCF7 breast, in the assay on SW-620 colon, in the assay with SN12C renal and with HT29 colon was more than 100 µM in each case.
With `Cc1cc(=O)[nH]c2cc(NC(=O)C(CCCN=C(N)N)NC(=O)OCc3ccccc3)ccc12` (centres undefined), the TGI with COLO 205 colon, in the assay on IGROV1 ovarian, in the assay on HL-60(TB) leukemia, in the assay on UACC-257 melanoma, in the assay with SR leukemia and with UO-31 renal was more than 100 µM each time. Also, the TGI in the assay on HOP-62 NSCLC, with NCI-H226 lung, in the assay on A549 NSCLC, in the assay on HCC-2998 colon, in the assay with HS 578T breast and with SNB-19 CNS was more than 100 µM throughout. Besides, the TGI in the assay with BT-549 breast, in the assay on HCT-15 colon, in the assay on MCF7 breast, in the assay on SW-620 colon, in the assay on SN12C renal and in the assay on HT29 colon was more than 100 µM throughout.
For the compound `CCCCc1ccc(-n2sc3ncc([N+](=O)[O-])cc3c2=O)cc1`, the TGI in the assay with COLO 205 colon came out at 32.3 µM; in the assay with IGROV1 ovarian, 28.1 µM; with HL-60(TB) leukemia it was 38 µM; in the assay on UACC-257 melanoma, 50.9 µM; in the assay on SR leukemia it was 45.9 µM; with UO-31 renal it was 35.5 µM. The TGI was 36.7 µM in the assay on HOP-62 NSCLC; 51.4 µM in the assay with NCI-H226 lung; 27.3 µM with A549 NSCLC; 27.6 µM in the assay with HCC-2998 colon; 30.8 µM in the assay on HS 578T breast; 48.6 µM in the assay with SNB-19 CNS. Moreover, the TGI in the assay with BT-549 breast was determined as 33.9 µM; in the assay on HCT-15 colon, 28.4 µM; with MCF7 breast, 40.5 µM; with SW-620 colon, 35.9 µM; in the assay with SN12C renal it was 32.7 µM; in the assay with HT29 colon, 26.7 µM.
Consider `COc1cccc(CCNc2c(C#N)c3nc4ccccc4n3c3ccccc23)c1`, for which the concentration for total growth inhibition (TGI) is more than 47.4 µM with COLO 205 colon; more than 100 µM in the assay with IGROV1 ovarian; more than 100 µM in the assay with HL-60(TB) leukemia; more than 100 µM with UACC-257 melanoma; more than 100 µM with SR leukemia; more than 100 µM in the assay on UO-31 renal. Besides, the TGI in the assay on HOP-62 NSCLC was more than 100 µM; with NCI-H226 lung it was more than 100 µM; in the assay with A549 NSCLC, more than 100 µM; in the assay on HCC-2998 colon it was more than 100 µM; with HS 578T breast, more than 27.2 µM; in the assay on SNB-19 CNS, more than 86 µM. Further, the TGI was more than 100 µM with BT-549 breast; more than 100 µM with HCT-15 colon; more than 100 µM in the assay with MCF7 breast; more than 100 µM in the assay on SW-620 colon; more than 70 µM in the assay on SN12C renal; more than 100 µM with HT29 colon.
On to `CC(=O)Oc1c2c(c(CC=C(C)C)c3c1C(=O)C1=C[C@@H]4CC5C(C)(C)OC(C/C=C(/C)C(=O)O)(C4=O)[C@@]15O3)OC(C)(CCC=C(C)C)C=C2` (some centres undefined), for which the TGI amounted to 0.421 µM in the assay on COLO 205 colon; 0.294 µM in the assay with IGROV1 ovarian; 10.6 µM in the assay with HL-60(TB) leukemia; 1.36 µM with UACC-257 melanoma; 53.9 µM in the assay on SR leukemia; 0.526 µM in the assay on UO-31 renal. Moreover, the TGI with HOP-62 NSCLC amounted to 1.88 µM; in the assay on NCI-H226 lung, 0.834 µM; in the assay with A549 NSCLC it was 0.999 µM; in the assay on HCC-2998 colon it was 1.62 µM; in the assay on HS 578T breast, 1.44 µM; with SNB-19 CNS, 1.38 µM. For the same compound, the TGI came out at 0.461 µM in the assay with BT-549 breast; 0.978 µM with HCT-15 colon; 1.4 µM with MCF7 breast; 0.241 µM in the assay on SW-620 colon; 0.53 µM in the assay with SN12C renal; 0.598 µM in the assay on HT29 colon.
As to `Cc1cc(S(=O)(=O)NC2=NC(c3ccccc3)c3cc(Cl)ccc3N2)c(S)cc1Cl` (centres undefined), the TGI in the assay on COLO 205 colon was more than 100 µM; with IGROV1 ovarian it was more than 100 µM; in the assay with HL-60(TB) leukemia it was more than 100 µM; with UACC-257 melanoma, more than 100 µM; in the assay on SR leukemia it was more than 100 µM; with UO-31 renal, 83.7 µM. Besides, the TGI with HOP-62 NSCLC, in the assay with NCI-H226 lung, in the assay with A549 NSCLC, in the assay with HCC-2998 colon, with HS 578T breast and in the assay with SNB-19 CNS was more than 100 µM in each case. Besides, the TGI with BT-549 breast, in the assay on HCT-15 colon, in the assay on MCF7 breast, in the assay with SW-620 colon, with SN12C renal and with HT29 colon was more than 100 µM throughout.
Regarding `Cc1ccc(N=C2S/C(=C3/CCC=C3N3CCOCC3)N(c3ccc(Cl)cc3)C2=Nc2ccc(C)cc2)cc1`, the TGI with COLO 205 colon, with IGROV1 ovarian, with HL-60(TB) leukemia, in the assay on UACC-257 melanoma, with SR leukemia and in the assay with UO-31 renal was more than 100 µM throughout. Further, the TGI in the assay on HOP-62 NSCLC, in the assay with NCI-H226 lung, in the assay on A549 NSCLC, with HCC-2998 colon, with HS 578T breast and in the assay on SNB-19 CNS was more than 100 µM each time. Also, the TGI in the assay with BT-549 breast, in the assay with HCT-15 colon, in the assay on MCF7 breast, in the assay with SW-620 colon, with SN12C renal and with HT29 colon was more than 100 µM throughout.
For `S=C(N/N=C/c1ccccn1)Nc1ccc(Cl)cc1`, the TGI in the assay with COLO 205 colon is more than 100 µM; with IGROV1 ovarian it was 25.6 µM; with HL-60(TB) leukemia, 0.0796 µM; in the assay on UACC-257 melanoma it was more than 100 µM; with SR leukemia, more than 100 µM; in the assay with UO-31 renal, 1.09 µM. The TGI in the assay with HOP-62 NSCLC was 17.4 µM; with NCI-H226 lung it was 3.33 µM; in the assay on A549 NSCLC it was more than 65.4 µM; in the assay with HCC-2998 colon, more than 57.7 µM; in the assay on HS 578T breast, more than 67.2 µM; with SNB-19 CNS, more than 39 µM. Besides, the TGI was more than 68.1 µM in the assay on BT-549 breast; more than 100 µM in the assay on HCT-15 colon; more than 100 µM in the assay on MCF7 breast; more than 100 µM in the assay on SW-620 colon; more than 100 µM in the assay on SN12C renal; more than 100 µM with HT29 colon.
For the compound `CN(C)CC1CCC/C(=C\c2ccc(OC(=O)/C=C/c3ccccc3)cc2)C1=O` (centres undefined), the TGI was 3.95 µM with COLO 205 colon; 14 µM in the assay on IGROV1 ovarian; more than 100 µM in the assay on HL-60(TB) leukemia; 21.2 µM in the assay on UACC-257 melanoma; more than 100 µM with SR leukemia; 3.66 µM in the assay on UO-31 renal. The TGI with HOP-62 NSCLC was 10.6 µM; with NCI-H226 lung, 9.54 µM; with A549 NSCLC, 8.4 µM; with HCC-2998 colon, more than 28.1 µM; in the assay with HS 578T breast it was 13.1 µM; with SNB-19 CNS it was 20.7 µM. For the same compound, the TGI amounted to 4.47 µM in the assay on BT-549 breast; 3.14 µM with HCT-15 colon; 1.93 µM with MCF7 breast; 4.94 µM with SW-620 colon; 4.43 µM in the assay on SN12C renal; 3.75 µM in the assay on HT29 colon.
